Measured values from PubChem BioAssay (NCI).
Where “and” joins values, the source holds several entries; their conditions need not be identical. Equal values may be shown once.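 Where inhibition never reached the appropriate level, the endpoint shown equals the highest concentration tested. Otherwise, values were interpolated linearly from a five-concentration, 48-hour dose response in 96-well plates. Here, GI50 denotes the concentration required for 50% inhibition of growth. TGI is the concentration that stops growth completely.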

test system: MDA-MB-468 breast; assay: NCI anticancer screen, dose series, 48 h

Compound | GI50 | TGI
COc1cccc2c1C(=O)c1c(O)c3c(c(O)c1C2=O)C[C@@](O)(C(=O)CO)C[C@@H]3OC1CC(N)C(O)C(C)O1 (stereo partly specified) | 59.9 nM and 58.9 nM and 97.1 nM | 250 nM and 236 nM and 486 nM
CC(C)=CC(=O)OCC(=O)O[C@@H]1C[C@]2(C(C)C)O[C@@]1(C)[C@@H]1CC[C@@H](C)[C@H]1[C@@H]2OC(=O)/C=C/c1ccccc1 | 11400 nM | > 82700 nM
COc1cc2c3c(n(CCCN4CCCCC4)c(=O)c2cc1OC)-c1cc2c(cc1C3=O)OCO2 | 1490 nM | 2860 nM
CCOC(=O)c1cc(C(=O)c2ccc(Cl)cc2)n2ccc(-c3cc[n+](CC(=O)c4ccc(OC)cc4)cc3)cc12 | 1840 nM | 3750 nM
COc1ccc2c(CCC(c3ccccc3)c3ccccc3)c3[n+](cc2c1OC)CCc1cc2c(cc1-3)OCO2 | – | 228 nM
CC(C)(C)c1[nH]nc2c1C(c1cc3ccccc3[nH]c1=O)Nc1cc(C(=O)Nc3ccc(Cl)cc3)ccc1N2 (stereo unspecified) | 1360 nM | 3080 nM
CCN1CCN(c2cc(C)nc(N(CCCNc3ccnc4cc(Cl)ccc34)Cc3cccs3)n2)CC1 | 1980 nM | 5090 nM
c1cc(N2CCCC2)c2nc(-c3[nH]ncc3Nc3ncnc4[nH]ccc34)[nH]c2c1 | 66.1 nM | 265 nM
Cc1ncn(-c2ccc(/C=N/Nc3ccnc4cc(Cl)ccc34)cc2)c1C | 1480 nM | 3000 nM
Nc1ccc2c(c1)Cc1cc(Cl)c(Cl)cc1-2 | 1360 nM | 86400 nM
O=C(N/N=C/c1ccc(Cl)s1)c1[nH]c2ccc(Br)cc2c1-c1ccccc1 | 286 nM | 4200 nM
NC(=O)c1cccc(-n2ccc3cc(NC(=O)Nc4ccc(N5CCOCC5)c(C(F)(F)F)c4)ccc32)n1 | 2440 nM | 7530 nM
CN(C)c1ccc2nc3ccc(=N)cc-3sc2c1 | 3520 nM | 13800 nM
COc1c(OCCCN2CCOCC2)ccc2c3n(c(=NC(=O)c4cnc(N)nc4)nc12)CCN3 | 21.2 nM and 27.9 nM and 38.9 nM | 229 nM [middle of 4 runs]
COc1cc(/C=C/C(=O)c2cc(OC)c(OC)c(OC)c2)ccc1Oc1nc2c(c(=O)n(C)c(=O)n2C)n1C | 1920 nM | 3730 nM
CCCCCCCCCCCCCCCCCCOP(=O)([O-])OC1CC[N+](C)(C)CC1 | 3740 nM | > 10000 nM
O=C1NC(=NCCc2cccs2)S/C1=C\c1ccc2ncccc2c1 | 5530 nM | > 25000 nM
CC1=C(SCCC(=O)OCC(=O)NCCC[Te]c2ccccc2)C(=O)c2ccccc2C1=O | 1810 nM | 3610 nM
O=C1/C(=C\c2ccc(Br)cc2)CN(C(=O)c2ccccc2F)C/C1=C\c1ccc(Br)cc1 | 1690 nM | 3690 nM
Cc1cccc(NC(=O)c2sc3nc4c(cc3c2N)CCCC4)c1 | 1750 nM | 44100 nM
COc1cc(C2c3cc4c(cc3OC(N3CCCCC3)C2C)OCO4)cc(OC)c1OC (stereo unspecified) | 3660 nM | 30300 nM

Compound | GI50 | TGI
CCOC(=O)c1c(NCC(=O)Nc2cccc([N+](=O)[O-])c2)sc(C(C)=O)c1C | 1850 nM | 4530 nM
Cc1cc(C)c(CNC(=O)c2cc(-c3ccc(CN4CCOCC4)cc3)cc3c2cnn3C2CCCC2)c(=O)[nH]1 | 13900 nM | 36200 nM
Cn1cc(C2=C(Sc3ccccc3)C(=O)NC2=O)c2ccccc21 | 4940 nM | 10400 nM
O=C1OCC2=C1C(c1cccc(F)c1)c1cc3c(cc1N2CCO)CCC3 (stereo unspecified) | 37.1 nM | 1090 nM
COC(=O)c1c2c(c[n+]([O-])c1C)C(=O)C=C(NCc1ccccc1)C2=O | 138 nM | 371 nM
Cc1c(NC(=O)c2cc(C(N)=O)nc3cc(F)ccc23)c(C(F)(F)F)nn1Cc1ccc(C#N)cc1 | 6580 nM | > 71900 nM
COc1cc(C(=O)/C=C/c2c(-c3cccs3)nc3sc(C)cn23)cc(OC)c1OC | 2230 nM | 8450 nM
CCCCCCCCCCCCC[N+](C)(C)Cc1ccccc1 | 213 nM | 852 nM
COc1ccc(C2=C(c3cn(C)c4ccccc34)C(=O)NC2=O)cc1 | 9840 nM | > 25000 nM
CC(=O)OCC1OC(OC2=C(CC=C(C)C)C(=O)c3ccccc3C2=O)C(OC(C)=O)C(OC(C)=O)C1OC(C)=O (stereo unspecified) | 1580 nM | 3680 nM
COc1ccc2c(c1)N(CCO)C1=C(C(=O)OC1)C2c1cc(OC)c(OC)c(OC)c1 (stereo unspecified) | 12.3 nM | 40.5 nM
CC#Cc1nc2ccccc2c(=O)[nH]1 | 2360 nM | 6040 nM
CCOC(=O)c1ccc2c(c1)c1c(C)c3ccncc3c(C)c1n2C | 1160 nM | 2830 nM
C=C(C)[C@@H]1CC[C@]2(CNCCO)CC[C@]3(C)[C@H](CC[C@@H]4[C@@]5(C)CCC(N)[C@@](C)(CO)[C@@H]5CC[C@]43C)[C@@H]12 (stereo partly specified) | 1610 nM | 3180 nM
Nc1nc2c(c3cnccc13)C(c1cccc(Br)c1)Cc1cnccc1-2 (stereo unspecified) | 257 nM | 808 nM
CC[C@]12C=CCN3CC[C@]4(C(=C(C(=O)OC)C1)Nc1cc(OC)c(OC(C)=O)cc14)[C@@H]32 | 428 nM | 20200 nM
COc1cc(Nc2cc(C)nc(N3CCN(c4ccnc5cc(Cl)ccc45)CC3)n2)cc(OC)c1 | 129 nM | 3200 nM
CC1(C)CCC(S(=O)(=O)c2ccc3c(c2)/C(=N\O)c2cc(S(=O)(=O)N4CCN(c5ccc(F)cc5O)CC4)ccc2-3)CC1 | 37.1 nM | 134 nM
CC(C)(O)c1coc(S(=O)(=O)/N=C(\O)Nc2c3c(cc4c2CCC4)CCC3)c1 | > 100000 nM | > 100000 nM
CCN(CC)c1ccc(N=O)cc1 | 1720 nM | 4390 nM
